The source of these data is patent publication US12209102B2, “Heterocyclic compounds and uses thereof” (Kumquat Biosciences Inc., priority 2022, dated 2025).

The subject of one assay is GP2D cells. Briefly: Ras cellular assay, growth of cells with K-Ras G12D mutation (CellTiter-Glo). It counts as cell-based. As to conditions: cell growth, Example 9, G12D mutation, read-out: IC50 against GP2D cells.
A further assay has as its system A549 cells. The assay is described as follows: Ras cellular assay, growth of cells with K-Ras G12S mutation (CellTiter-Glo). The assay is classed as cell-based. As to conditions: Homo sapiens, cell growth, Example 9, G12S mutation, read-out: IC50 against A549 cells. In outline: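 A549 cells (K-Ras G12S) in RPMI-1640 with 10% heat-inactivated FBS, seeded e.g. 800 per well in standard or ultra-low-attachment 384-well plates, treated next day with a dilution series (e.g. 10-point, 3-fold). Viability by CellTiter-Glo luminescence about 6 days later; IC50 from four-parameter fit.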
On the technique in general: Cellular ATP, detected with luciferase, serves as a proxy for viable cell number.

The target of another assay is T1, K-Ras G12V (Homo sapiens, UniProt P01116, G12V).
T1 construct: made in house; host or cells: E. coli BL21 (DE3)
T1 sequence (P01116 1-188 isoform P01116-2 G12V): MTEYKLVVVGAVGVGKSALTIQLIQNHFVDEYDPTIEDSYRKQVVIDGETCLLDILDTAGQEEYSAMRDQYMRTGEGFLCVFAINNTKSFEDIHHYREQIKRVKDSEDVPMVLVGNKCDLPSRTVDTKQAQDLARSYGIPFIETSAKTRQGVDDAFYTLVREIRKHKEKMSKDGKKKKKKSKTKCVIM
The assay is described as follows: HTRF resonance energy transfer assay, K-Ras G12V / SOS1 interaction. The assay is classed as biochemical. As to conditions: HTRF assay of Example 5; read-out: IC50 against K-Ras G12V. In outline: (§1)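 Read-out: HTRF 665/620 nm ratio (excitation 337 nm) after roughly 10 min or longer incubation, used to derive IC50. Donor anti-GST-Eu on GST-K-Ras; acceptor anti-6His-XL665 on His-hSOS1. Duplicate dose series from 10 μM down to 0.01 μM.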
In general terms: TR-FRET usually uses a lanthanide donor and a delayed reading to cut background.

The next assay deals with T2, K-Ras G12D (Homo sapiens, UniProt P01116, G12D).
T2 construct: made in house; host or cells: E. coli BL21 (DE3)
T2 sequence (P01116 1-188 isoform P01116-2 G12D): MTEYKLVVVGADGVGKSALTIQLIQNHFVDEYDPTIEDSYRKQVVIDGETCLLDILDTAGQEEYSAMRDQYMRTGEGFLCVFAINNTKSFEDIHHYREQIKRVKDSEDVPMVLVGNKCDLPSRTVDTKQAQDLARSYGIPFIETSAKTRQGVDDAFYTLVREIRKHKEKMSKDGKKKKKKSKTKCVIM
The assay is described as follows: HTRF resonance energy transfer assay, K-Ras G12D / SOS1 interaction. The assay is classed as biochemical. As to conditions: HTRF assay of Example 5; read-out: IC50 against K-Ras G12D. In outline: as §1

The next assay has as its target T3, K-Ras G12S (Homo sapiens, UniProt P01116, G12S).
T3 construct: made in house; host or cells: E. coli BL21 (DE3)
Briefly: HTRF resonance energy transfer assay, K-Ras G12S / SOS1 interaction. The assay is classed as biochemical. To be noted: HTRF assay of Example 5; read-out: IC50 against K-Ras G12S. In outline: as §1

A further assay addresses T4, K-Ras WT (Homo sapiens, UniProt P01116).
T4 construct: made in house; host or cells: E. coli BL21 (DE3)
The assay is described as follows: HTRF resonance energy transfer assay, K-Ras WT / SOS1 interaction. As to conditions: HTRF assay of Example 5; read-out: IC50 against K-Ras WT. It counts as biochemical. In outline:
as §1

Another assay deals with SW620 cells. The assay is described as follows: Ras cellular assay, growth of cells with K-Ras G12V mutation (CellTiter-Glo). It counts as cell-based. To be noted: Homo sapiens, SW-620; cell growth, Example 9, G12V mutation; read-out: IC50 against SW620 cells. In outline: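 SW620 (K-Ras G12V) cells, e.g. 800/well in RPMI-1640 with 10% heat-inactivated FBS on standard or ultra-low attachment plates, were dosed the day after plating with e.g. a 10-point 3-fold series. Viability by CellTiter-Glo luminescence about 6 days later; IC50 from four-parameter fit.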

T3 sequence (P01116 1-188 isoform P01116-2 G12S): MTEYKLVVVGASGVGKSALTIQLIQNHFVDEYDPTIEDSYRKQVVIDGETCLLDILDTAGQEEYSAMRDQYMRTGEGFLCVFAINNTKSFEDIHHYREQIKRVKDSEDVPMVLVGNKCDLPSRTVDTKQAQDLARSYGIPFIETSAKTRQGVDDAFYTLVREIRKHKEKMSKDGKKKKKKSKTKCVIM
T4 sequence (P01116 1-188 isoform P01116-2): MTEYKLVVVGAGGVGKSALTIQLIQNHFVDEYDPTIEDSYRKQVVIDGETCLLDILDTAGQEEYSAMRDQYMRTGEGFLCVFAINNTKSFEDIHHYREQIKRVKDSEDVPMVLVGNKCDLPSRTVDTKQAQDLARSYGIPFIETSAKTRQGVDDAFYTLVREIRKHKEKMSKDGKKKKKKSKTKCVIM

In general, IC50 refers to the concentration at which inhibition is half-maximal. With `CN(C)C(=O)C1CC(N2CCOc3c(Cl)c(-c4ccc(F)c5sc(N)c(C#N)c45)c(F)c4nc(OC[C@@]56CCCN5C[C@H](F)C6)nc2c34)C1` (single isomer, unassigned) [Compound 640], the half-inhibitory concentration (IC50) was less than 500 nM with GP2D cells and less than 5000 nM with A549 cells.

On to `CC1COc2c(Cl)c(-c3ccc(F)c4sc(N)c(C#N)c34)c(F)c3nc(OC[C@@]45CCCN4C[C@H](F)C5)nc(c23)N1CC(F)F` (single isomer, unassigned) [Compound 1073], for which the IC50 in the assay on GP2D cells is less than 500 nM; in the assay with A549 cells, less than 5000 nM.

Turning to `CCN1CCOc2c(Cl)c(-c3ccc(F)c4sc(N)c(C#N)c34)c(F)c3nc(OC[C@@]45CCCN4C[C@H](F)C5)nc1c23` [Compound 625, 2-amino-4-(8-chloro-4-ethyl-10-fluoro-2-(((2R,7aS)-2-fluorotetrahydro-1H-pyrrolizin-7a(5H)-yl)methoxy)-5,6-dihydro-4H-[1,4]oxazepino[5,6,7-de]quinazolin-9-yl)-7-fluorobenzo[b]thiophene-3-carbonitrile], the IC50 was less than 500 nM with GP2D cells; less than 100 nM at K-Ras G12V; less than 100 nM at K-Ras G12D; less than 100 nM at K-Ras G12S; less than 5000 nM in the assay on A549 cells; less than 100 nM on K-Ras WT.

For `CC[C@H]1COc2c(Cl)c(-c3ccc(F)c4sc(N)c(C#N)c34)c(F)c3nc(OC[C@@]45CCCN4C[C@H](F)C5)nc(c23)N1CC(F)F` [Compound 877, 2-amino-4-((5S)-8-chloro-4-(2,2-difluoroethyl)-5-ethyl-10-fluoro-2-(((2R,7aS)-2-fluorotetrahydro-1H-pyrrolizin-7a(5H)-yl)methoxy)-5,6-dihydro-4H-[1,4]oxazepino[5,6,7-de]quinazolin-9-yl)-7-fluorobenzo[b]thiophene-3-carbonitrile], the half-inhibitory concentration (IC50) in the assay with GP2D cells was less than 500 nM; with A549 cells, less than 5000 nM.

Turning to `N#Cc1c(N)sc2c(F)ccc(-c3c(Cl)c4c5c(nc(OC[C@@]67CCCN6C[C@H](F)C7)nc5c3F)N(CC3CC3C#N)CCO4)c12` (stereo partly drawn) [Compound 962, 2-amino-4-(8-chloro-4-((2-cyanocyclopropyl)methyl)-10-fluoro-2-(((2R,7aS)-2-fluorotetrahydro-1H-pyrrolizin-7a(5H)-yl)methoxy)-5,6-dihydro-4H-[1,4]oxazepino[5,6,7-de]quinazolin-9-yl)-7-fluorobenzo[b]thiophene-3-carbonitrile], the IC50 is less than 500 nM in the assay on GP2D cells, less than 5000 nM in the assay with SW620 cells and less than 5000 nM in the assay on A549 cells.

For the compound `CC1Oc2c(Cl)c(-c3ccc(F)c4sc(N)c(C#N)c34)c(F)c3nc(OC[C@@]45CCCN4C[C@H](F)C5)nc(c23)N(CC(F)F)C1CC#N` (stereo partly drawn) [Compound 1015, 2-amino-4-(8-chloro-5-(cyanomethyl)-4-(2,2-difluoroethyl)-10-fluoro-2-(((2R,7aS)-2-fluorotetrahydro-1H-pyrrolizin-7a(5H)-yl)methoxy)-6-methyl-5,6-dihydro-4H-[1,4]oxazepino[5,6,7-de]quinazolin-9-yl)-7-fluorobenzo[b]thiophene-3-carbonitrile], the figures for the IC50 in the assay on GP2D cells, with SW620 cells and in the assay on A549 cells were less than 500 nM, less than 5000 nM and less than 5000 nM, respectively.

As to `N#Cc1c(N)sc2c(F)ccc(-c3c(Cl)c4c5c(nc(OC[C@@]67CCCN6C[C@H](F)C7)nc5c3F)N(C3CCCC3O)CCO4)c12` (stereo partly drawn) [Compound 1017, 2-amino-4-(8-chloro-10-fluoro-2-(((2R,7aS)-2-fluorotetrahydro-1H-pyrrolizin-7a(5H)-yl)methoxy)-4-(2-hydroxycyclopentyl)-5,6-dihydro-4H-[1,4]oxazepino[5,6,7-de]quinazolin-9-yl)-7-fluorobenzo[b]thiophene-3-carbonitrile], the figures for the IC50 with GP2D cells and in the assay with A549 cells were less than 500 nM and less than 5000 nM, respectively.

Consider `N#Cc1c(N)sc2c(F)ccc(-c3c(Cl)c4c5c(nc(OC[C@@]67CCCN6C[C@H](F)C7)nc5c3F)N([C@H]3CNC[C@H]3F)CCO4)c12` [Compound 1070, 2-amino-4-(8-chloro-10-fluoro-4-((3S,4R)-4-fluoropyrrolidin-3-yl)-2-(((2R,7aS)-2-fluorotetrahydro-1H-pyrrolizin-7a(5H)-yl)methoxy)-5,6-dihydro-4H-[1,4]oxazepino[5,6,7-de]quinazolin-9-yl)-7-fluorobenzo[b]thiophene-3-carbonitrile], for which the IC50 in the assay on GP2D cells is less than 500 nM; on K-Ras G12V it was less than 100 nM; at K-Ras G12D, less than 100 nM; on K-Ras G12S it was less than 100 nM; in the assay on SW620 cells it was less than 5000 nM; on K-Ras WT, less than 100 nM.

As to `N#Cc1c(N)sc2c(F)ccc(-c3c(Cl)c4c5c(nc(OC[C@@]67CCCN6C[C@H](F)C7)nc5c3F)N[C@@H](C3(O)CC3)CO4)c12` [Compound 1076, 2-amino-4-((R)-8-chloro-10-fluoro-2-(((2R,7aS)-2-fluorotetrahydro-1H-pyrrolizin-7a(5H)-yl)methoxy)-5-(1-hydroxycyclopropyl)-5,6-dihydro-4H-[1,4]oxazepino[5,6,7-de]quinazolin-9-yl)-7-fluorobenzo[b]thiophene-3-carbonitrile], the 50% inhibitory concentration (IC50) is less than 500 nM with GP2D cells; less than 100 nM at K-Ras G12V; less than 100 nM on K-Ras G12D; less than 100 nM on K-Ras G12S; less than 5000 nM in the assay on SW620 cells; less than 100 nM at K-Ras WT.

As to `CN1c2nc(OC[C@@]34CCCN3C[C@H](F)C4)nc3c(F)c(-c4ccc(F)c5sc(N)c(C#N)c45)c(Cl)c(c23)OC[C@@H]1CNC=O` [Compound 1097, N-(((5S)-9-(2-amino-3-cyano-7-fluorobenzo[b]thiophen-4-yl)-8-chloro-10-fluoro-2-(((2R,7aS)-2-fluorotetrahydro-1H-pyrrolizin-7a(5H)-yl)methoxy)-4-methyl-5,6-dihydro-4H-[1,4]oxazepino[5,6,7-de]quinazolin-5-yl)methyl)formamide], the IC50 with GP2D cells is less than 500 nM; on K-Ras G12V, less than 100 nM; on K-Ras G12D, less than 100 nM; on K-Ras G12S, less than 100 nM; in the assay with SW620 cells, less than 5000 nM; on K-Ras WT it was less than 100 nM.

Turning to `CC(O)C1COc2c(Cl)c(-c3ccc(F)c4sc(N)c(C#N)c34)c(F)c3nc(OC[C@@]45CCCN4C[C@H](F)C5)nc(c23)N1CC1CCNCC1` (stereo partly drawn) [Compound 1125, 2-amino-4-(8-chloro-10-fluoro-2-(((2R,7aS)-2-fluorotetrahydro-1H-pyrrolizin-7a(5H)-yl)methoxy)-5-(1-hydroxyethyl)-4-(piperidin-4-ylmethyl)-5,6-dihydro-4H-[1,4]oxazepino[5,6,7-de]quinazolin-9-yl)-7-fluorobenzo[b]thiophene-3-carbonitrile], the IC50 in the assay with GP2D cells is less than 500 nM; on K-Ras G12V it was less than 100 nM; on K-Ras G12D, less than 100 nM; on K-Ras G12S it was less than 100 nM; in the assay on SW620 cells, less than 5000 nM; on K-Ras WT, less than 100 nM.

Regarding `C[C@@H]1CCOc2c(Cl)c(-c3ccc(F)c4sc(N)c(C#N)c34)c(F)c3nc(OC[C@@]45CCCN4C[C@H](F)C5)nc(c23)N1` [Compound 1219, 2-amino-4-((5R)-9-chloro-11-fluoro-2-(((2R,7aS)-2-fluorotetrahydro-1H-pyrrolizin-7a(5H)-yl)methoxy)-5-methyl-4,5,6,7-tetrahydro-[1,5]oxazocino[4,3,2-de]quinazolin-10-yl)-7-fluorobenzo[b]thiophene-3-carbonitrile], the IC50 with GP2D cells is less than 500 nM; on K-Ras G12V, less than 100 nM; at K-Ras G12D, less than 100 nM; on K-Ras G12S it was less than 100 nM; in the assay with SW620 cells, less than 5000 nM; on K-Ras WT, less than 100 nM.

Turning to `C[C@@H]1CCOc2c(Cl)c(-c3ccc(F)c4sc(N)c(C#N)c34)c(F)c3nc(OC[C@@]45CCCN4C[C@H](F)C5)nc(c23)N1C` [Compound 1222, 2-amino-4-((R)-9-chloro-11-fluoro-2-(((2R,7aS)-2-fluorotetrahydro-1H-pyrrolizin-7a(5H)-yl)methoxy)-4,5-dimethyl-4,5,6,7-tetrahydro-[1,5]oxazocino[4,3,2-de]quinazolin-10-yl)-7-fluorobenzo[b]thiophene-3-carbonitrile], the IC50 is less than 500 nM in the assay on GP2D cells; less than 100 nM at K-Ras G12V; less than 100 nM at K-Ras G12D; less than 100 nM on K-Ras G12S; less than 5000 nM in the assay with SW620 cells; less than 100 nM at K-Ras WT.
